Reference: patent US6358883B1, “Pesticidal and parasiticidal use of 1-aryl-1-(substituted thio, sulfinyl and sulfonyl)-2-nitroethane compounds” (American Cyanamid Company, priority 1998, dated 2002)
Where two headings read alike, the source gives them in different places.

Columns and labels:
[1] = tested on: C. elegans (Bristol strain); test: Evaluation of test compounds against C. elegans (motility, 96-well plate); format: in vivo; design: key: 9=complete kill in 4 hours; 8=complete kill in 24 hours; 7=markedly reduced motility in approximately 95% of worms in 24 hours; 0=normal motility, same as controls; conditions: motility at 4 and 24 hours
Procedure, shortened: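 Activity is a semi-quantitative visual score of adult and larval movement, read at 4 h and 24 h post-immersion at 20 °C after gentle tapping. Worms were suspended in Na buffer in wells where compound, dissolved in 80% acetone, had been evaporated.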

[2] = tested on: M. incognita (Root Knot Nematode) larvae; test: Evaluation of test compounds against M. incognita larvae in microtiter plate wells (movement score); format: in vivo; conditions: larvae scored for movement after 20-24 hours; note: key: A score of '9' indicates inactive worms with a straight, sticklike morphology; A score of '8' indicates inactive worms with a limp, curled or curved morphology; A score of '7' indicates dead/paralyzed worms after 72 hours
Procedure, shortened: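 Scoring is by larval movement: dead or paralyzed worms count as positive, and a "7" means dead/paralyzed at 72 hours. Freshly hatched root-knot larvae (50-65 per well) in buffered S Medium were incubated with compounds under plate sealers for 20-24 h before the first read.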

[3] = tested on: Diabrotica undecimpunctata howardi, eggs-southern corn rootworm (SCR-Eggs); test: Southern corn rootworm eggs (SCR-Eggs) treated diet test; format: in vivo; design: key: 0 = no effect; 1 = 10-25% kill; 2 = 26-35% kill; 3 = 36-45% kill; 4 = 46-55% kill; 5 = 56-65% kill; 6 = 66-75% kill; 7 = 76-85% kill; 8 = 86-99% kill; 9 = 100% kill; conditions: mortality after 7 days
Procedure, shortened: (§1)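 Eggs of S. eridania or D. undecimpunctata howardi were set on artificial diet pretreated with test solution (10,000 ppm stock in 35% aqueous acetone, water dilutions) and dried. Wells were sealed with vented clear covers, and mortality was scored at day 7.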

[4] = tested on: Spodoptera eridania, eggs-southern armyworm (SAW-Eggs); test: Southern armyworm eggs (SAW-Eggs) treated diet test; format: in vivo; design: key: 0 = no effect; 1 = 10-25% kill; 2 = 26-35% kill; 3 = 36-45% kill; 4 = 46-55% kill; 5 = 56-65% kill; 6 = 66-75% kill; 7 = 76-85% kill; 8 = 86-99% kill; 9 = 100% kill; conditions: mortality after 7 days
Procedure, shortened: as §1

[5] = tested on: Root-knot nematode, Meloidogyne incognita J2 larvae; conditions: potted tomato, scored 4 weeks following inoculation
Description: Soil Nematicide Assay Targeting Root-knot Nematode, Meloidogyne Incognita on Potted Tomato
The test compound is solubilized in acetone and diluted with water to the required test concentration. Silty loam soil in a 3 inch pot with a 3-week-old tomato transplant is drenched with the test solution. Four thousand root-knot nematode Meloidogyne incognita J2 larvae are dispensed in a aqueous suspension onto the soil. The pots are kept in the greenhouse and 4 weeks following inoculation of the pots, plant roots are washed free of soil and scored for the degree of root galling using the root-knot galling index identified below.

[6] = tested on: Aphis gossypii, cotton aphid (CA); test: Cotton aphid (CA) cotyledon dip test; format: in vivo; design: key: 0 = no effect; 1 = 10-25% kill; 2 = 26-35% kill; 3 = 36-45% kill; 4 = 46-55% kill; 5 = 56-65% kill; 6 = 66-75% kill; 7 = 76-85% kill; 8 = 86-99% kill; 9 = 100% kill; conditions: mortality after 5 days
Procedure, shortened: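 Mortality was scored 5 days after dipping aphid-infested cotyledons, colonised overnight from a transfer leaf, into water dilutions of a 35% acetone/water compound solution.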

[7] = tested on: Tetranychus urticae (OP-resistant strain), 2-spotted spider mite (TSM); test: 2-spotted spider mite (TSM) plant dip test; format: in vivo; design: key: 0 = no effect; 1 = 10-25% kill; 2 = 26-35% kill; 3 = 36-45% kill; 4 = 46-55% kill; 5 = 56-65% kill; 6 = 66-75% kill; 7 = 76-85% kill; 8 = 86-99% kill; 9 = 100% kill; conditions: mortality after 2 days
Procedure, shortened: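 Mortality counted 2 days after a 3 s agitated dip of infested Sieva lima bean plants. Compound came from a 10,000 ppm stock in 35% aqueous acetone, with further dilution in water. Each primary leaf carried about 100 OP-resistant mites, allowed to settle ~2 h before dipping.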

[8] = tested on: Diabrotica virgifera virgifera Leconte, 2nd instar western corn rootworm (WCR); test: Western corn rootworm (WCR) soil test; format: in vivo; design: key: 0 = no effect; 1 = 10-25% kill; 2 = 26-35% kill; 3 = 36-45% kill; 4 = 46-55% kill; 5 = 56-65% kill; 6 = 66-75% kill; 7 = 76-85% kill; 8 = 86-99% kill; 9 = 100% kill
Procedure, shortened: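 Ten 2nd-instar rootworm larvae are placed in jars of moist soil with millet seed and talc treated with 1.25 mg active ingredient (roughly 50 kg/ha) from a 35% acetone-in-water solution. After 5 days mortality is scored, counting missing larvae as dead.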

[9] = tested on: Spodoptera eridania, 2nd instar larvae, southern armyworm (SAW); test: Southern armyworm (SAW) leaf dip test; format: in vivo; design: key: 0 = no effect; 1 = 10-25% kill; 2 = 26-35% kill; 3 = 36-45% kill; 4 = 46-55% kill; 5 = 56-65% kill; 6 = 66-75% kill; 7 = 76-85% kill; 8 = 86-99% kill; 9 = 100% kill
Procedure, shortened: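 Ten 2nd instar caterpillars feed on a Sieva lima bean leaf that was dipped 3 seconds in test solution (stock 10,000 ppm in 35% acetone/water, water-diluted). Five days later, larvae are assessed for death, feeding reduction or abnormal molting.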

SMILES | Rating Against C. elegans (150 ppm) [1] | M. incognita (150 ppm) score [2] | SCR Eggs (1000 ppm) rating [3] | SAW Eggs (300 ppm) rating [4] | Galling Index ([5]; Rate 10 ppm soil drench) | Galling Index ([5]; Rate 25 ppm soil drench) | Galling Index ([5]; Rate 50 ppm soil drench) | CA (300 ppm) rating [6] | TSM (300 ppm) rating [7] | WCR (50 ppm) rating [8] | SAW (300 ppm) rating [9]
O=C(O)CSC(C[N+](=O)[O-])c1ccccc1 (stereo not drawn) [Example 1, {[alpha-(nitromethyl)benzyl]thio}-acetic acid] | 9 | 9 | 0 | 0 | 1 (10) | 0 (0) | 0 (0) | – | – | – | –
CCCSC(C[N+](=O)[O-])c1cccnc1 (stereo not drawn) [Example 175] | 0 | 9 | 0 | 0 | – | – | – | 0 | 0 | 0 | 0
C=CCSC(C[N+](=O)[O-])c1cccnc1 (stereo not drawn) [Example 176] | 0 | 9 | 0 | 0 | – | – | – | 0 | 0 | 0 | 0
O=[N+]([O-])CC(SCc1ccccc1)c1cccnc1 (stereo not drawn) [Example 177] | 0 | 9 | 0 | 0 | – | – | – | 0 | 0 | 0 | 0
CCCOC(=O)CSC(C[N+](=O)[O-])c1cccnc1 (stereo not drawn) [Example 178] | 0 | 9 | 0 | 0 | – | – | – | 0 | 0 | 0 | 0
